PubChem BioAssay (NCI)
Where “and” joins values, the source holds several entries; their conditions need not be identical. Equal entries are not always repeated.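 In this assay, cells in 96-well plates receive the compound at five concentrations for 48 hours. Endpoints are linearly interpolated between the surrounding concentrations. The concentration for 50% growth inhibition is given as GI50. At the TGI there is no net growth.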

Columns and labels:
Test in all cases: DTP human tumour cell line panel, 48 h
PC-3 prostate = tested on: PC-3 prostate
HT29 colon = tested on: HT29 colon
MDA-MB-435 = tested on: MDA-MB-435
COLO 205 colon = tested on: COLO 205 colon
NCI-H522 lung = tested on: NCI-H522 lung
NCI/ADR-RES ovarian = tested on: NCI/ADR-RES ovarian
SK-MEL-28 melanoma = tested on: SK-MEL-28 melanoma
DU-145 prostate = tested on: DU-145 prostate
SNB-75 CNS = tested on: SNB-75 CNS
786-0 renal = tested on: 786-0 renal

## COc1ccc2c(c1)CC[C@@H]1[C@@H]2CC[C@]2(C)c3c(cc(C(=O)c4ccccc4)c4sccc34)C[C@@H]12
PC-3 prostate
  GI50: 38.1 µM
  TGI: > 100 µM
HT29 colon
  GI50: > 100 µM
  TGI: > 100 µM
MDA-MB-435
  GI50: > 100 µM
  TGI: > 100 µM
COLO 205 colon
  GI50: > 100 µM
  TGI: > 100 µM
NCI-H522 lung
  GI50: > 100 µM
  TGI: > 100 µM
NCI/ADR-RES ovarian
  GI50: > 100 µM
  TGI: > 100 µM
SK-MEL-28 melanoma
  GI50: > 100 µM
  TGI: > 100 µM
DU-145 prostate
  GI50: > 100 µM
  TGI: > 100 µM
SNB-75 CNS
  GI50: 22.8 µM
  TGI: > 100 µM
786-0 renal
  GI50: > 100 µM
  TGI: > 100 µM

## CCNCCNc1cc(C2CCCC2)c(C#N)c2nc3ccccc3n12
PC-3 prostate
  GI50: 6.1 µM
  TGI: 19.3 µM
HT29 colon
  GI50: 2.37 µM
  TGI: 5.98 µM
MDA-MB-435
  GI50: 2.62 µM
  TGI: 7.62 µM
COLO 205 colon
  GI50: 2 µM
  TGI: 4.71 µM
NCI-H522 lung
  GI50: 2.26 µM
  TGI: 5.33 µM
NCI/ADR-RES ovarian
  GI50: 4.55 µM
  TGI: 19 µM
SK-MEL-28 melanoma
  GI50: 1.84 µM
  TGI: 3.68 µM
DU-145 prostate
  GI50: 3.71 µM
  TGI: 13.8 µM
SNB-75 CNS
  GI50: 1.63 µM
  TGI: 4.02 µM
786-0 renal
  GI50: 2.69 µM
  TGI: 9.79 µM

## O=C(Nc1ncc(Cc2ccc(Cl)cc2)s1)c1ccc2c(c1)OCCO2
PC-3 prostate
  GI50: 0.047 µM
  TGI: > 100 µM
HT29 colon
  GI50: 0.171 µM
  TGI: > 43.4 µM
MDA-MB-435
  GI50: 0.0197 µM
  TGI: 0.0459 µM
COLO 205 colon
  GI50: 0.0492 µM
  TGI: 1.19 µM
NCI-H522 lung
  GI50: 0.0331 µM
NCI/ADR-RES ovarian
  GI50: 0.0393 µM
  TGI: 5.58 µM
SK-MEL-28 melanoma
  GI50: 1.02 µM
  TGI: > 100 µM
DU-145 prostate
  GI50: 0.05 µM
  TGI: 9.38 µM
SNB-75 CNS
  GI50: 0.0266 µM
  TGI: 3.4 µM
786-0 renal
  GI50: 0.0728 µM
  TGI: > 100 µM

## COc1ccc2oc(-c3ccc(Cl)cc3)c(N3CCN(C)CC3)c2c1
PC-3 prostate
  GI50: 1.69 µM
  TGI: 5.54 µM
HT29 colon
  GI50: 1.42 µM
  TGI: 3.32 µM
MDA-MB-435
  GI50: 1.83 µM
  TGI: 4.06 µM
COLO 205 colon
  GI50: 1.68 µM
  TGI: 3.62 µM
NCI-H522 lung
  GI50: 1.9 µM
  TGI: 3.91 µM
NCI/ADR-RES ovarian
  GI50: 2.19 µM
  TGI: 5.46 µM
SK-MEL-28 melanoma
  GI50: 1.62 µM
  TGI: 3.08 µM
DU-145 prostate
  GI50: 1.88 µM
  TGI: 3.98 µM
SNB-75 CNS
  GI50: 1.48 µM
  TGI: 4.01 µM
786-0 renal
  GI50: 1.75 µM
  TGI: 3.42 µM

## OCCCNC(=S)Nc1ccc(-c2nc3ccccc3s2)cc1
PC-3 prostate
  GI50: 27.7 µM
  TGI: > 100 µM
HT29 colon
  GI50: 32.2 µM
  TGI: > 100 µM
MDA-MB-435
  GI50: 17.9 µM
  TGI: 50.8 µM
COLO 205 colon
  GI50: 30 µM
  TGI: > 100 µM
NCI-H522 lung
  GI50: 12.6 µM
  TGI: 38.7 µM
NCI/ADR-RES ovarian
  GI50: 25.2 µM
  TGI: 66.6 µM
SK-MEL-28 melanoma
  GI50: 24.9 µM
  TGI: 70.3 µM
DU-145 prostate
  GI50: 40.9 µM
  TGI: > 100 µM
SNB-75 CNS
  GI50: 18.8 µM
  TGI: 78.8 µM
786-0 renal
  GI50: 22.8 µM
  TGI: 55.2 µM

## Cc1ccc(S(=O)(=O)C2=C3C(=C(c4ccccc4)c4ccccc43)CN(S(=O)(=O)c3ccc(C)cc3)C2)cc1
PC-3 prostate
  GI50: 3.39 µM
  TGI: > 100 µM
HT29 colon
  GI50: 3.32 µM
  TGI: 69.4 µM
MDA-MB-435
  GI50: 3.76 µM
  TGI: 17.9 µM
COLO 205 colon
  GI50: 14.9 µM
  TGI: > 100 µM
NCI-H522 lung
  GI50: 2.41 µM
  TGI: 6.35 µM
NCI/ADR-RES ovarian
  GI50: 2.98 µM
  TGI: 90.7 µM
SK-MEL-28 melanoma
  GI50: 15 µM
  TGI: 52.3 µM
DU-145 prostate
  GI50: 11.8 µM
  TGI: > 100 µM
SNB-75 CNS
  GI50: 2.92 µM
  TGI: 31.6 µM
786-0 renal
  GI50: 1.67 µM
  TGI: 3.22 µM

## NNc1nc(-c2ccccn2)nc2sc3c(c12)CCCCCC3
PC-3 prostate
  GI50: 3.98 µM
  TGI: > 100 µM
HT29 colon
  GI50: 5.53 µM
  TGI: > 100 µM
MDA-MB-435
  GI50: 5.17 µM
  TGI: > 100 µM
COLO 205 colon
  GI50: 5.07 µM
  TGI: > 100 µM
NCI-H522 lung
  GI50: 12.1 µM
  TGI: 68.3 µM
NCI/ADR-RES ovarian
  GI50: 0.453 µM
  TGI: 52.3 µM
SK-MEL-28 melanoma
  GI50: 14.9 µM
  TGI: > 100 µM
DU-145 prostate
  GI50: 9.48 µM
  TGI: > 100 µM
SNB-75 CNS
  GI50: 12.6 µM
  TGI: 95.9 µM
786-0 renal
  GI50: 5.65 µM
  TGI: 25.2 µM

## NS(=O)(=O)c1ccc(NCc2cnc3ccccc3c2)cc1
PC-3 prostate
  TGI: > 100 µM
HT29 colon
  TGI: > 100 µM
MDA-MB-435
  TGI: > 100 µM
COLO 205 colon
  TGI: > 100 µM
NCI-H522 lung
  TGI: > 100 µM
NCI/ADR-RES ovarian
  TGI: > 100 µM
SK-MEL-28 melanoma
  TGI: > 100 µM
DU-145 prostate
  TGI: > 100 µM
SNB-75 CNS
  TGI: > 100 µM
786-0 renal
  TGI: > 100 µM

## O=C(O)c1cn(C2CC2)c2cc(N3CCN(C(=O)Nc4nc(-c5ccc(Cl)cc5)cs4)CC3)c(F)cc2c1=O
PC-3 prostate
  GI50: 2.7 µM
  TGI: > 100 µM
HT29 colon
  GI50: 2.99 µM
  TGI: > 100 µM
MDA-MB-435
  GI50: 2.75 µM
  TGI: > 100 µM
COLO 205 colon
  GI50: 3.32 µM
  TGI: > 100 µM
NCI-H522 lung
  GI50: 2.55 µM
  TGI: 9.14 µM
NCI/ADR-RES ovarian
  GI50: 4.21 µM
  TGI: > 100 µM
SK-MEL-28 melanoma
  GI50: 0.701 µM
  TGI: > 100 µM
DU-145 prostate
  GI50: 2.29 µM
  TGI: > 100 µM
SNB-75 CNS
  GI50: 2.25 µM
  TGI: 20.5 µM
786-0 renal
  GI50: 2.32 µM
  TGI: 22.5 µM

## Cc1cccc2c(=O)c3c(sc12)c(NCCN)nc1ccccc13
PC-3 prostate
  GI50: 0.717 µM
  TGI: 1.49 µM
HT29 colon
  GI50: 0.819 µM
  TGI: 1.61 µM
MDA-MB-435
  GI50: 0.911 µM
  TGI: 1.67 µM
COLO 205 colon
  GI50: 0.826 µM
  TGI: 1.65 µM
NCI-H522 lung
  GI50: 0.863 µM
  TGI: 1.75 µM
NCI/ADR-RES ovarian
  GI50: 0.909 µM
  TGI: 1.95 µM
SK-MEL-28 melanoma
  GI50: 0.936 µM
  TGI: 1.7 µM
DU-145 prostate
  GI50: 0.981 µM
  TGI: 1.97 µM
SNB-75 CNS
  GI50: 0.448 µM
  TGI: 2.79 µM
786-0 renal
  GI50: 0.917 µM
  TGI: 1.69 µM

## COc1ccc(OC)c(/C=C/c2cnnc3ccccc23)c1
PC-3 prostate
  TGI: > 10 µM
HT29 colon
  TGI: > 10 µM
MDA-MB-435
  TGI: 2.01 µM
COLO 205 colon
  TGI: > 10 µM
NCI-H522 lung
  TGI: > 10 µM
NCI/ADR-RES ovarian
  TGI: 7.81 µM
SK-MEL-28 melanoma
  TGI: > 10 µM
DU-145 prostate
  TGI: > 10 µM
SNB-75 CNS
  TGI: > 10 µM
786-0 renal
  TGI: > 10 µM

## COc1cc([C@@H]2c3cc4c(cc3[C@H](O)[C@H]3COC(=O)[C@@H]23)OCO4)cc(OC)c1OC
PC-3 prostate
  GI50: 0.362 µM and 0.51 µM
  TGI: > 100 µM
HT29 colon
  GI50: 0.36 µM and 0.104 µM
  TGI: > 3.94 µM and 1.06 µM
MDA-MB-435
  GI50: 0.124 µM and 0.0315 µM
  TGI: 0.377 µM and 0.132 µM
COLO 205 colon
  GI50: 0.347 µM and 0.132 µM
  TGI: 1.3 µM and 0.431 µM
NCI-H522 lung
  GI50: 0.244 µM and 0.281 µM
NCI/ADR-RES ovarian
  GI50: 0.884 µM and 0.194 µM
  TGI: > 10 µM
SK-MEL-28 melanoma
  GI50: 0.561 µM and 0.374 µM
  TGI: > 100 µM
DU-145 prostate
  GI50: 0.544 µM and 0.237 µM
SNB-75 CNS
  GI50: 0.256 µM and 0.0455 µM
  TGI: > 100 µM
786-0 renal
  GI50: 0.504 µM and 0.332 µM
  TGI: > 100 µM

## COc1ccc2c(c1)N(CCC1CCCCN1C)c1ccccc1S2 (configuration not stated)
PC-3 prostate
  TGI: 22.7 µM
HT29 colon
  TGI: 18.9 µM
MDA-MB-435
  TGI: 20.6 µM
COLO 205 colon
  TGI: 30.9 µM
NCI-H522 lung
  TGI: 28 µM
NCI/ADR-RES ovarian
  TGI: 25.4 µM
SK-MEL-28 melanoma
  TGI: 14.2 µM
DU-145 prostate
  TGI: 26.2 µM
SNB-75 CNS
  TGI: 24.6 µM
786-0 renal
  TGI: 29.5 µM

## O=C1/C(=c2\c3ccccc3n3c(=O)c4ccccc4nc23)Nc2ccccc21
PC-3 prostate
  TGI: > 100 µM
HT29 colon
  TGI: > 100 µM
MDA-MB-435
  TGI: 36.8 µM
COLO 205 colon
  TGI: > 100 µM
NCI-H522 lung
  TGI: > 100 µM
NCI/ADR-RES ovarian
  TGI: > 100 µM
SK-MEL-28 melanoma
  TGI: > 100 µM
DU-145 prostate
  TGI: > 100 µM
SNB-75 CNS
  TGI: > 76.1 µM
786-0 renal
  TGI: > 100 µM
